Key:
Conditions in all cases: exposure: 6-8 hpf to 5 dpf, scored at 6 dpf
Danio rerio embryo/larva [1] = assay: max % larvae with spinal defects across tested concentrations; higher = more toxic; extreme values may be limits of the assay
Danio rerio embryo/larva [2] = assay: max % larvae with craniofacial defects across tested concentrations; higher = more toxic; extreme values may be limits of the assay
Danio rerio embryo/larva [3] = assay: max % larvae with tail defects across tested concentrations; higher = more toxic; extreme values may be limits of the assay
Danio rerio embryo/larva [4] = assay: max % larvae with pigmentation defects across tested concentrations; higher = more toxic
Danio rerio embryo/larva [5] = assay: max % larvae with abnormal position across tested concentrations; higher = more toxic; extreme values may be limits of the assay
Danio rerio embryo/larva [6] = assay: max % larvae with uninflated swim bladder across tested concentrations; higher = more toxic; extreme values may be limits of the assay
Danio rerio embryo/larva [7] = assay: max % larvae with blood pooling across tested concentrations; higher = more toxic; extreme values may be limits of the assay
Danio rerio embryo/larva [8] = assay: max % larvae with edema across tested concentrations; higher = more toxic; extreme values may be limits of the assay
Danio rerio embryo/larva [9] = assay: max % larvae unhatched across tested concentrations; max tested concentration (log10 uM): 2; higher = more toxic
Danio rerio embryo/larva [10] = assay: max % larvae with any abnormality across tested concentrations; max tested concentration (log10 uM): 2; higher = more toxic; extreme values may be limits of the assay

Row | SMILES | max % larvae (Danio rerio embryo/larva [1]) [%] | max % larvae (Danio rerio embryo/larva [2]) [%] | max % larvae (Danio rerio embryo/larva [3]) [%] | max % larvae (Danio rerio embryo/larva [4]) [%] | max % larvae (Danio rerio embryo/larva [5]) [%] | max % larvae (Danio rerio embryo/larva [6]) [%] | max % larvae (Danio rerio embryo/larva [7]) [%] | max % larvae (Danio rerio embryo/larva [8]) [%] | max % larvae unhatched across tested concentrations (Danio rerio embryo/larva [9]) [%] | max % larvae (Danio rerio embryo/larva [10]) [%]
1 | FC(F)(F)C(F)(F)C(F)(F)C(F)(F)C(F)(F)C(F)(F)C(F)(F)I [1-Iodopentadecafluoroheptane] (max tested concentration (log10 uM): 2) | 8.33 | 10 | 0 | 0 | 10.4 | 80 | 16.7 | 30 |  | 
2 | Cc1ccc(S(=O)(=O)OCC(F)(F)C(F)(F)C(F)(F)C(F)(F)C(F)(F)C(F)F)cc1 [1H,1H,7H-Perfluoroheptyl 4-methylbenzenesulfonate] (max tested concentration (log10 uM): 2) | 4.17 | 16.7 | 0 | 0 | 4.17 | 75 | 0 | 16.7 |  | 
3 | C=CC(=O)OCC(F)(F)C(F)(F)C(F)(F)C(F)(F)C(F)(F)C(F)(F)C(F)(F)C(F)F [1H,1H,9H-Perfluorononyl acrylate] |  |  |  |  |  |  |  |  | 0 | 16.7
4 | OCC(F)(F)OC(F)(F)C(F)(F)OC(F)(F)C(F)(F)OC(F)(F)CO [1H,1H,11H,11H-Perfluorotetraethylene glycol] |  |  |  |  |  |  |  |  | 0 | 100
5 | FC(F)(F)C(F)(F)C(F)(F)CC1CO1 (stereo not drawn) [1H,1H-Heptafluorobutyl epoxide] (max tested concentration (log10 uM): 2) | 0 | 9.09 | 9.09 | 0 | 0 | 9.09 | 9.09 | 9.09 |  | 
6 | O=S(=O)(OCC(F)(F)F)C(F)(F)C(F)(F)C(F)(F)C(F)(F)F [2,2,2-Trifluoroethyl perfluorobutanesulfonate] (max tested concentration (log10 uM): 2) | 0 | 9.09 | 4.55 | 0 | 11.4 | 90.9 | 31.8 | 54.5 |  | 
7 | O=P(O)(O)CCC(F)(F)C(F)(F)C(F)(F)C(F)(F)C(F)(F)C(F)(F)F [2-(Perfluorohexyl)ethylphosphonic acid] (max tested concentration (log10 uM): 2) | 0 | 20 | 0 | 0 | 10 | 40 | 0 | 60 |  | 
8 | O=C(O)C=C(C(F)(F)F)C(F)(F)F [3,3-Bis(trifluoromethyl)-2-propenoic acid] (max tested concentration (log10 uM): 2) | 0 | 0 | 0 | 0 | 0 | 0 | 0 | 2.08 |  | 
9 | O=C(O)CCC(F)(F)C(F)(F)C(F)(F)F [3:3 Fluorotelomer carboxylic acid] (max tested concentration (log10 uM): 2) | 0 | 10 | 2.5 | 0 | 7.5 | 20 | 10 | 17.5 |  | 
10 | OCCCCC(F)(F)C(F)(F)C(F)(F)C(F)(F)F [4:4 Fluorotelomer alcohol] (max tested concentration (log10 uM): 2) | 0 | 81.2 | 15.6 | 0 | 18.8 | 93.8 | 0 | 93.8 |  | 
11 | OCC(F)(F)C(F)(F)C(F)(F)C(F)(F)C(F)(F)C(F)(F)F [6:1 Fluorotelomer alcohol] (max tested concentration (log10 uM): 2) | 12.5 | 25 | 12.5 | 0 | 4.17 | 25 | 16.7 | 25 |  | 
12 | O=S(=O)(O)CCC(F)(F)C(F)(F)C(F)(F)C(F)(F)C(F)(F)C(F)(F)F [6:2 Fluorotelomer sulfonic acid] (max tested concentration (log10 uM): 2) | 0 | 0 | 0 | 0 | 4.17 | 0 | 0 | 4.17 |  | 
13 | FC(F)C(F)(F)COCC1CO1 (stereo not drawn) [((2,2,3,3-Tetrafluoropropoxy)methyl)oxirane] (max tested concentration (log10 uM): 2) | 0 | 16.7 | 0 | 0 | 8.33 | 91.7 | 0 | 31.2 |  | 
14 | C=C(C)C(=O)OCC(F)(F)C(F)(F)C(F)(F)F [(Perfluoropropyl)methyl methacrylate] (max tested concentration (log10 uM): 2) | 0 | 8.33 | 4.17 | 4.17 | 4.17 | 8.33 | 0 | 8.33 |  | 
15 | O=C(O)C(F)(F)C(F)(F)C(F)(F)C(F)(F)C(F)(F)C(F)(F)C(F)(F)F [Ammonium perfluorooctanoate] |  |  |  |  |  |  |  |  | 0 | 16.7
16 | O=C(O)C(F)(F)C(F)(F)C(F)(F)C(F)(F)C(F)(F)C(F)(F)C(F)(F)F [Ammonium perfluorooctanoate] (max tested concentration (log10 uM): 2) | 0 | 0 | 0 | 0 | 0 | 9.09 | 0 | 0 |  | 
17 | FC(F)(F)C(F)(F)CNCC(F)(F)C(F)(F)F [Bis(1H,1H-perfluoropropyl)amine] (max tested concentration (log10 uM): 2) | 0 | 0 | 0 | 0 | 0 | 16.7 | 0 |  |  | 
18 | NC(=O)C(F)(F)C(F)(F)C(F)(F)F [Heptafluorobutyramide] (max tested concentration (log10 uM): 2) | 0 | 0 | 0 | 0 | 0 | 10 | 0 | 8.33 |  | 
19 | O=S(=O)(Cl)C(F)(F)C(F)(F)C(F)(F)C(F)(F)C(F)(F)C(F)(F)C(F)(F)C(F)(F)F [Perfluoro-1-octanesulfonyl chloride] (max tested concentration (log10 uM): 2) | 25 | 100 | 100 | 0 | 25 | 100 | 0 | 100 |  | 
20 | O=C(O)C(F)(F)C(F)(F)OC(F)(F)F [Perfluoro-3-methoxypropanoic acid] (max tested concentration (log10 uM): 2) | 0 | 0 | 0 | 0 | 0 | 0 | 16.7 | 8.33 |  | 
21 | O=C(O)C(F)(F)C(F)(F)C(=O)O [Perfluorobutanedioic acid] (max tested concentration (log10 uM): 2) | 0 | 0 | 0 | 0 | 4.17 | 0 | 8.33 | 8.33 |  | 
22 | O=S(=O)(O)C(F)(F)C(F)(F)C(F)(F)C(F)(F)C(F)(F)C(F)(F)C(F)(F)F [Perfluoroheptanesulfonic acid] (max tested concentration (log10 uM): 1.90309) | 8.33 | 100 | 37.5 | 16.7 | 50 | 100 | 50 | 91.7 |  | 
23 | O=C(O)C(F)(F)C(F)(F)C(F)(F)C(F)(F)C(F)(F)C(F)(F)F [Perfluoroheptanoic acid] |  |  |  |  |  |  |  |  | 0 | 16.7
24 | O=S(=O)(O)C(F)(F)C(F)(F)C(F)(F)C(F)(F)C(F)(F)C(F)(F)F [Perfluorohexanesulfonic acid] (max tested concentration (log10 uM): 2) | 3.12 | 50 | 0 | 0 | 31.2 | 100 | 25 | 31.2 |  | 
25 | O=S(=O)(O)C(F)(F)C(F)(F)C(F)(F)C(F)(F)C(F)(F)C(F)(F)C(F)(F)C(F)(F)F [Potassium perfluorooctanesulfonate] (max tested concentration (log10 uM): 2) | 50 | 100 | 100 | 0 | 50 | 100 | 33.3 | 100 |  | 
26 | O=C(O)C(F)(F)C(F)(F)C(F)(F)C(F)(F)C(F)(F)C(F)(F)C(F)(F)F [Potassium perfluorooctanoate] (max tested concentration (log10 uM): 2) | 0 | 9.09 | 2.27 | 0 | 2.27 | 9.09 | 9.09 | 9.09 |  | 

Source: the supplement of paper PMC11281043
